In one data set the test system is monocyte TNF levels. As to conditions: gastric cancer patients, chemotherapy; cited from earlier work.
Data set [1] has as its system A2780 ovarian tumour cells. The settings on record: cited from earlier work.
Data set [2] deals with MCF-7TXT cells. Briefly: Clonogenic assay. As for the experimental part: (§1) MCF-7 cells from the American Tissue Culture Collection (catalog number HTB-22) were cultured or selected for survival in increasing doses of docetaxel or paclitaxel as previously described [17;18]. The initial concentrations of docetaxel and paclitaxel used to begin selection (dose 1) were 0.51 and 0.56 nM, respectively. Cells selected to docetaxel concentrations of 1.11 nM (dose 8, MCF-7TXT8), 3.33 nM (dose 9, MCF-7TXT9), 5.00 nM (dose 10, MCF-7TXT10), 15 nM (dose 11, MCF-7TXT11), and 45 nM (dose 12, MCF-7TXT12) were used in this study. Numbers in subscripts of cell line names refer to the maximum docetaxel dose level to which the cells were exposed. The paclitaxel resistant cell line used in this study was selected in an identical manner to a final concentration of 6.64 nM paclitaxel (MCF-7TAX-1 cells; hyphenated number indicates the first cell line selection, not drug dose). […] A2780 ovarian carcinoma cells from the European Collection of Cell Cultures were also selected for resistance to docetaxel in an identical manner (A2780DXL cells), including the creation of “co-cultured control” A2780CC cells.
(§2) Cellular sensitivity to TNFα or docetaxel was assessed using a clonogenic assay as described previously. Docetaxel resistance factors for the cell lines were determined by dividing the IC50 for docetaxel in the taxane-resistant cell lines by the IC50 for MCF-7CC cells. […] (SN-50, 7 μg/ml). A control peptide at the same concentration (SN-50M) was used in the latter experiments to assess the specificity of NF-κB inhibition.

In data set [3] the test system is MCF-7CC cells. Briefly: Clonogenic assay. As for the experimental part: as §2
For data set [4], the system named is serum levels of proinflammatory cytokines, including TNFα. The settings on record: castration-resistant prostate cancer patients, two days after administration; cited from earlier work.
For the next data set, the system named is A2780DXL cells. Briefly: Clonogenic assay. The data set is classed as cell-based, human. The settings on record: A2780DXL cells at maximally tolerated dose (405 nM). On the procedure: as §1, §2
Data set [5] has as its system MCF-7TXT cells. Briefly: sTNFα in cell culture medium by ELISA. The class given is cell-based, human. As to conditions: for sTNFα levels: 50 nM docetaxel. On the procedure:
(§3) Concentrated proteins from the medium of two million MCF-7CC, MCF-7TXT or A2780 cells (grown in culture in the absence or presence of various concentrations of paclitaxel or docetaxel) were assessed for levels of sTNFα or sTNFR1 using ELISA kits from R&D Systems™, following the manufacturer's instructions.

The test system of data set [6] is MCF-7CC cells. The data set can be described thus: sTNFα in cell culture medium by ELISA. The class given is cell-based, human. As for the experimental part:
as §3

For the next data set, the system named is A2780 cells. Briefly: sTNFα in cell culture medium by ELISA. The class given is cell-based, human. On the procedure: as §3
(An ELISA detects its analyte on a solid surface through an enzyme-linked reagent.)

The subject of data set [7] is MCF-7TAX-1 cells. The data set can be described thus: sTNFα in cell culture medium by ELISA. The data set is classed as cell-based, human. The settings on record: presence or absence of docetaxel.
The conditions of data set [8]: breast cancer patients following docetaxel infusion; cited from earlier work.
The next data set deals with murine macrophages. As to conditions: cited from earlier work.
Data set [9] has as its system NF-κB p65 and p50 subunits. Briefly: NF-κB activity in nuclear extracts (TransAM NF-κB Family ELISA). The class given is cell-based, human. As to conditions: MCF-7CC and MCF-7TXT cells, 50 nM docetaxel 24 hours; except selection doses >15 nM (dose 11 and 12). As for the experimental part:
MCF-7CC and MCF-7TXT cells were cultured in the presence or absence of 50 nM docetaxel for 24 hours. The activity of the NF-κB p65 and p50 subunits in 10 μg of nuclear extracts was assessed as outlined in the TransAM™ NF-κB Family ELISA kit (Active Motif™, Carlsbad, Calif.). Readings at 450 nm were normalized to the sum of all readings on the plate in order to compare across triplicate experiments.

Data set [10] has as its system MCF-7TAX-1 cells. The settings on record: cited from earlier work.
Data set [11] relates to MCF-7TAX-1 cells. Briefly: Clonogenic assay. The data set is classed as cell-based, human. As for the experimental part:
as §1, §2

The subject of the next data set is C2C12 myotubes. As to conditions: cited from earlier work.
Data set [12] concerns MCF-7TXT cells. As to conditions: cited from earlier work.

Like-named read-outs stand apart in the source and are kept apart here.

Consider `O=c1[nH]cc(F)c(=O)[nH]1` [5FU], for which the “monocyte TNF levels” value in the data set with monocyte TNF levels is given as “no effect”.
For `CC[C@@]1(O)C(=O)OCc2c1cc1n(c2=O)Cc2cc3c(CN(C)C)c(O)ccc3nc2-1` [Topotecan], the “TNF alpha production / levels” value in data set [1] is reported as “no effect on TNF alpha levels”.
Take `N.N.[Cl][Pt][Cl]` [cisplatin]: the “TNF alpha production / levels” value in [1] is listed as “increased TNF alpha production”.
`C[C@@H]1C[C@@H]([C@H](O)CC2CC(=O)NC(=O)C2)C(=O)[C@@H](C)C1` [cycloheximide]: the “effect on TNFα cytotoxicity” value in the data set on MCF-7TXT cells [2] (MCF-7TXT10 cells, cycloheximide 5 μg/mL with 10 ng/mL TNFα, 24 hours) was “restored TNFα's ability to be cytotoxic”; in the data set on MCF-7CC cells [3] (cycloheximide 5 μg/mL with 10 ng/mL TNFα, 24 hours), “only a small additional effect”.
Turning to `CC(=O)O[C@@]12CO[C@@H]1C[C@H](O)[C@@]1(C)C(=O)[C@H](O)C3=C(C)[C@@H](OC(=O)[C@H](O)[C@@H](NC(=O)OC(C)(C)C)c4ccccc4)C[C@@](O)([C@@H](OC(=O)c4ccccc4)[C@H]21)C3(C)C` [docetaxel], in data set [4], the “serum levels of proinflammatory cytokines, including TNFα” value is reported as “increased”. Also, the resistance to docetaxel with A2780DXL cells is reported as approximately 4000 fold. For the same compound, the sTNFα secretion result is on record as “no significant difference” with MCF-7TXT cells [5] (MCF-7TXT8 cells, 50 nM docetaxel versus untreated) and “no significant difference” in the data set on MCF-7CC cells [6] (MCF-7CC cells, 50 nM docetaxel versus untreated). Also, the “further increase of sTNFα production” value in the data set on MCF-7TXT cells [5] (MCF-7TXT9 cells, 50 nM docetaxel versus untreated) was found to be 1.62 fold; in the data set on MCF-7TXT cells [5] (MCF-7TXT10 cells, 50 nM docetaxel versus untreated) it was 1.27 fold. The sTNFα levels result in the data set on MCF-7TXT cells [5] (MCF-7TXT11 cells) and in the data set on MCF-7TXT cells [5] (MCF-7TXT12 cells) was “returned to basal levels” throughout. In addition, in the data set with MCF-7CC cells [6] (MCF-7CC cells, 3 nM docetaxel, 48 hours), the “sTNFα levels in media” value is “significantly elevated”. For the same compound, the sTNFα levels secreted entry in the data set with MCF-7CC cells [6] (MCF-7CC cells, 0.1 to 1 nM docetaxel, versus untreated) is on record as “not significantly changed”; in the data set with A2780 cells (A2780CC cells, 0.1 to 1 nM docetaxel, versus untreated), “not significantly changed”. The “TNFα production and sTNFα release” value with MCF-7CC cells [6] (breast tumor cells, docetaxel 3 to 45 nM) is “can stimulate TNFα production and sTNFα release”; in the data set on A2780 cells (ovarian tumor cells, docetaxel 3 to 45 nM), “can stimulate TNFα production and sTNFα release”. In the data set with A2780 cells (A2780 cells, compared with MCF-7CC cells, 48 hours), the “TNFα produced in response to docetaxel” value is “even greater amounts”. Further, the docetaxel sensitivity entry in the data set with MCF-7TXT cells [2] (MCF-7TXT8 cells (selected to 1.1 nM docetaxel) versus MCF-7CC) is recorded as “did not affect docetaxel sensitivity”. Besides, the “resistance to docetaxel (IC50 ratio to MCF-7CC)” value with MCF-7TXT cells [2] (MCF-7TXT9 cells (selected to 3.33 nM docetaxel)) turned out to be 11.4 fold. For the same compound, the docetaxel resistance factor in the data set on MCF-7TXT cells [2] (MCF-7TXT10 cells (selected to 5 nM docetaxel)) was determined as 16.6; with MCF-7TXT cells [2] (MCF-7TXT11 cells (selected to 15 nM docetaxel)), 32.8; in the data set with MCF-7TXT cells [2] (MCF-7TXT12 cells (selected to 45 nM docetaxel)), 184. Also, in the data set with MCF-7TAX-1 cells [7], the “sTNFα levels versus MCF-7CC” value is reported as “No differences”. Further, the “plasma levels of docetaxel” value in data set [8] was 10 to 75 nM. Moreover, the TNFα expression result with murine macrophages (same study) is “no effect”. Also, in data set [9], the “p65 and p50 subunit binding to the NF-κB sequence” value is “even higher levels”. Besides, in the data set on MCF-7TAX-1 cells [10], the “cross resistance to docetaxel” value is 46 fold.
As to `COc1cccc2c1C(=O)c1c(O)c3c(c(O)c1C2=O)C[C@@](O)(C(=O)CO)C[C@@H]3O[C@H]1C[C@H](N)[C@H](O)[C@H](C)O1` [doxorubicin], the “monocyte TNF levels” value with monocyte TNF levels is listed as “no effect”. Further, in data set [1], the “TNF alpha production / levels” value was “increased TNF alpha production”. For the same compound, the TNFα expression entry with MCF-7CC cells [6] (MCF-7 breast tumour cells, FIG. 1D) is given as “induces TNFα expression”; in the data set with A2780 cells (A2780 ovarian tumour cells, FIG. 1E), “induces TNFα expression”.
Turning to `CO[C@@]12[C@H](COC(N)=O)C3=C(C(=O)C(C)=C(N)C3=O)N1C[C@@H]1N[C@@H]12` [mitomycin C], the “monocyte TNF levels” value with monocyte TNF levels was “no effect”.
Take `CC(=O)O[C@H]1C(=O)[C@@]2(C)[C@H]([C@H](OC(=O)c3ccccc3)[C@]3(O)C[C@H](OC(=O)[C@H](O)[C@@H](NC(=O)c4ccccc4)c4ccccc4)C(C)=C1C3(C)C)[C@]1(OC(C)=O)CO[C@@H]1C[C@@H]2O` [paclitaxel]: the paclitaxel resistance factor in the data set with MCF-7TAX-1 cells [11] (maximally tolerated dose of paclitaxel) is on record as 42. In addition, the sTNFα production result in the data set on A2780 cells (A2780 cells, paclitaxel at concentrations 15 nM, compared with docetaxel) was “even higher levels”. Also, the sTNFα release entry in the data set with A2780 cells (ovarian tumor cells, paclitaxel 5 and 15 nM) is recorded as “dramatically increase sTNFα release”; with murine macrophages (levels unachievable in patients) it was “increase sTNFα release”. Further, the TNFα production entry in the data set with C2C12 myotubes (4 hours following treatment, paclitaxel 10 nM to 10 μM) was “did not induce increased TNFα production”. The NF-κB activity result in the data set with C2C12 myotubes is “induced NF-κB activity”. Also, the figures for the “cross-resistance to paclitaxel, resistance factor” value in the data set with MCF-7TXT cells [12] (selection dose 11) and in the data set with MCF-7TXT cells [12] (selection dose 12) were 148 and 251, respectively.
On to `CC[C@]1(O)C[C@@H]2CN(CCc3c([nH]c4ccccc34)[C@@](C(=O)OC)(c3cc4c(cc3OC)N(C)[C@H]3[C@@](O)(C(=O)OC)[C@H](OC(C)=O)[C@]5(CC)C=CCN6CC[C@]43[C@@H]65)C2)C1` [vinblastine], for which the “TNF alpha production / levels” value in data set [1] was “increased TNF alpha production”.
Take TNFα: the colony formation entry is “strong reductions in colony formation” with MCF-7TAX-1 cells [11] (TNFα 50 or 100 ng/ml, relative to MCF-7TXT10); “increased colony formation” in the data set with MCF-7TXT cells [2] (MCF-7TXT12 cells, TNFα 10 ng/mL); “very strongly reduced” in the data set with MCF-7CC cells [3] (TNFα 50 or 100 ng/mL). In the data set on MCF-7TXT cells [2] (MCF-7TXT8 cells, TNFα 10 ng/ml), the “reduction of colony formation” value is reported as 66.6±1.7%. Moreover, the “colony formation in absence or presence of TNFα” value in the data set with MCF-7TXT cells [2] (MCF-7TXT10 cells, TNFα 10 ng/mL) is reported as “significant resistance to TNFα”. In addition, the “reductions in colony formation” value with MCF-7TXT cells [2] (MCF-7TXT10 cells, TNFα 50 ng/mL or 100 ng/mL, compared with MCF-7CC) is “much smaller”. In addition, the NF-κB activity entry in the data set with C2C12 myotubes was “induced NF-κB activity”.
